Data as given in patent publication US5008267A, “Pyrimidinedione compounds, method of producing the same and antiarrythmic agents containing the same” (Mitsui Toatsu Chemicals, Incorporated, priority 1988, dated 1991).
Counter-ions that a name gives are not always drawn.

Key:
[1] = test system: Purkinje fiber of the right ventricular free wall (myocardial action potential); experiment: Influence on myocardial action potential duration time (APD75), isolated right ventricular free wall, microelectrode in Purkinje fiber; format: cell-based, dog; details: Canis lupus familiaris, 20 min, 20 minutes' incubation; for activation at 1 µg/mL: 1.0 μg/ml; for activation at 1 µg/mL / activation at 3 µg/mL / activation at 10 µg/mL: (B-A)/A×100, read-out: APD75 (%); for activation at 3 µg/mL: 3.0 μg/ml; for activation at 10 µg/mL: 10.0 μg/ml; for activation at 0.3 µg/mL: 0.3 μg/ml, (B-A)/A×100
[2] = test system: ventricular muscle refractory period; experiment: Influence on ventricular muscle refractory period (ERP); format: in vivo, mongrel dog; details: Canis lupus familiaris, iv, i.v., (W-Y)/Y×100, read-out: ERP (%; extensibility of refractory period)
Protocol: (2) Influence on ventricular muscle refractory period Refractory periods were measured in the following manner before and after each of the compounds and d-sotalol shown in Table 2 was separately administered to a vein or a duodenum, and ERP (%; extensibility of refractory period) was calculated from the measured values: ERP (%)=(W-Y)/Y×100 W: Refractory period after administration Y: Refractory period before administration To a mongrel adult dog, 30 mg/kg of pentobarbital was administered intravenously, and after being anesthetized, a pair of silver-silver chloride electrodes separated by 3 mm was sewn on an opened right ventricule, and electrical stimulation was given at an interval of 400 msec at a duration time of 4 msec under a current twice as much as the threshold. Afterward, a small amount of alcohol was injected into a sinus artery in order to extinguish a pacemaker activity, and the ventricular refractory period (ERP) was measured under ventricule pacing. That is, each 1 train comprised 10 stimulations having intervals of 400 msec, and an interval between the trains was usually 400 msec. However, this interval was shortened 10 msec by 10 msec at the time of the refractory period measurement, and an interval between the trains at the time when reaction to the first stimulation of the train disappeared was regarded as the refractory period. In this case, the electrical stimulation was fed in accordance with a program by a heart stimulation device (Diamedical Co., Ltd.; DHM-226-3).

Row | Structure (SMILES) | activation at 1 µg/mL [1] [%] | activation at 3 µg/mL [1] [%] | activation at 10 µg/mL [1] [%] | change in vivo at 0.1 mg/kg [2] [%] | change in vivo at 0.3 mg/kg [2] [%] | change in vivo at 1 mg/kg [2] [%] | change in vivo at 3 mg/kg [2] [%] | activation at 0.3 µg/mL [1] [%]
1 | Cn1c(N2CCN(CC(=O)c3ccc([N+](=O)[O-])cc3)CC2)cc(=O)n(C)c1=O [Compound 42, 1,3-dimethyl-6-[4-(4-nitrophenacyl)piperazin-1-yl]-2,4(1H,3H)-pyrimidinedione hydrochloride] | 2 | 10 | 17 | 4.6 | 9.4 | 11.7 | 18.4 | –
2 | Cn1c(NCCN2CCN(c3ccc([N+](=O)[O-])cc3)CC2)cc(=O)n(C)c1=O [Compound 64, 1,3-dimethyl-6-{2-[4-(4-nitrophenyl)piperazin-1-yl]ethylamino}-2,4(1H,3H)-pyrimidinedione oxalate] | 23 | 32 | – | 21.4 | 28.6 | 28.6 | – | 8
3 | Cn1c(N2CCN(CCCOc3ccc([N+](=O)[O-])cc3N)CC2)cc(=O)n(C)c1=O [Compound 153, 1,3-dimethyl-6-{4-[3-(2-amino-4-nitrophenyloxy)propyl]piperazin-1-yl}-2,4(1H,3H)-pyrimidinedione oxalate] | 20 | 25 | – | 6.1 | 9.1 | 18.3 | – | –
4 | Cn1c(NCCNCc2ccc([N+](=O)[O-])cc2)cc(=O)n(C)c1=O [Compound 15, 1,3-dimethyl-6-[2-(4-nitrobenzylamino)ethylamino]-2,4(1H,3H)-pyrimidinedione oxalate] | – | 6 | 16 | 6.3 | 12.5 | 12.5 | 18.8 | –
5 | CCN(CCNc1cc(=O)n(C)c(=O)n1C)CCc1ccc([N+](=O)[O-])cc1 [Compound 21] | 13 | 27 | 37 | 7 | 10 | 14 | 14 | –
6 | Cn1c(N2CCN(CCCOc3ccc(Cl)cc3[N+](=O)[O-])CC2)cc(=O)n(C)c1=O [Compound 140, 1,3-dimethyl-6-{4-[3-(4-chloro-2-nitrophenoxy)propyl]piperazin-1-yl}-2,4(1H,3H)-pyrimidinedione hydrochloride] | 6 | 17 | 29 | 0 | 3.55 | 3.55 | – | –
7 | CC(=O)c1cc([N+](=O)[O-])ccc1OCCCN1CCN(c2cc(=O)n(C)c(=O)n2C)CC1 [Compound 76, 1,3-dimethyl-6-{4-[3-(2-acetyl-4-nitrophenoxy)propyl]piperazin-1-yl}-2,4(1H,3H)-pyrimidinedione oxalate] | 16 | 21 | – | 2.4 | 4.3 | 12.6 | 16.5 | –
8 | Cn1c(NCCN(CCCc2ccc([N+](=O)[O-])cc2)CCOC(=O)c2ccccc2)cc(=O)n(C)c1=O [Compound 168, 1,3-dimethyl-6-{2-[N-(2-benzoyloxyethyl)-3-(4-nitrophenyl)propylamino]ethylamino}-2,4(1H,3H)-pyrimidinedione oxalate] | 48 | 55 | 68 | 6 | 12 | 18 | 18 | –
9 | Cn1c(N2CCN(CCc3ccc(C(=O)c4ccccc4)cc3[N+](=O)[O-])CC2)cc(=O)n(C)c1=O [Compound 137, 1,3-dimethyl-6-{4-[2-(4-benzoyl-2-nitrophenyl)ethyl]piperazin-1-yl}-2,4(1H,3H)-pyrimidinedione oxalate] | 32 | 51 | – | 6.3 | 6.3 | 12.5 | 18.8 | –
10 | Cn1c(N2CCN(CCCc3ccc([N+](=O)[O-])cc3)CC2)cc(=O)n(C)c1=O [Compound 33, 1,3-dimethyl-6-{4-[3-(4-nitrophenyl)propyl]piperazin-1-yl)-2,4(1H,3H)-pyrimidinedione oxalate] | 17 | 22 | 31 | 14.3 | 14.3 | 17.9 | 21.4 | –
11 | COC(=O)c1ccc(OCCCN2CCN(c3cc(=O)n(C)c(=O)n3C)CC2)c([N+](=O)[O-])c1 [Compound 154, 1,3-dimethyl-6-{4-[3-(4-methoxycarbonyl-2-nitrophenyloxy)propyl]piperazin-1-yl}-2,4(1H,3H)-pyrimidinedione oxalate] | 9 | 12 | 20 | 0 | 0 | 5.9 | 11.8 | –
12 | CC(C)NC[C@@H](O)c1ccc(NS(C)(=O)=O)cc1 [d-sotalol, reference compound] | 3 | 7.4 | 15.8 | 1.7 | 6.7 | 8.7 | 15.5 | 0
13 | COc1cc([N+](=O)[O-])ccc1OCCCN1CCN(c2cc(=O)n(C)c(=O)n2C)CC1 [Compound 164, 1,3-dimethyl-6-{4-[3-(2-methoxy-4-nitrophenyloxy)propyl]piperazin-1-yl}-2,4(1H,3H)-pyrimidinedione hydrochloride] | – | 8 | 12 | 0 | 7.7 | 15.4 | 15.4 | –
14 | Cn1c(N2CCN(CCc3ccc([N+](=O)[O-])cc3)CC2)cc(=O)n(C)c1=O [Compound 14, 1,3-dimethyl-6-{4-[2-(4-nitrophenyl)ethyl]piperazin-1-yl}-2,4(1H,3H)-pyrimidinedione hydrochloride] | 43 | – | – | 14 | 33.5 | – | – | 18
15 | Cn1c(N2CCN(CC(O)c3ccc([N+](=O)[O-])cc3)CC2)cc(=O)n(C)c1=O (centres unmarked) [Compound 44, 1,3-dimethyl-6-{4-[2-hydroxy-2-(4-nitrophenyl)ethyl]piperazin-1-yl}-2,4-(1H,3H)-pyrimidinedione hydrochloride] | 5 | 13 | 21 | 0 | 7.7 | 19.9 | 27.8 | –
16 | Cn1c(N2CCN(CCOc3ccc([N+](=O)[O-])cc3C(=O)c3ccccc3)CC2)cc(=O)n(C)c1=O [Compound 99] | 9 | 22 | 29 | 9.8 | 14.7 | 23.1 | – | –
17 | CN(CCCN1CCN(c2cc(=O)n(C)c(=O)n2C)CC1)c1ccc([N+](=O)[O-])cc1 [Compound 69, 1,3-dimethyl-6-{4-[3-(N-methyl-4-nitroanilino)propyl]piperazin-1-yl}-2,4(1H,3H)-pyrimidinedione oxalate] | – | 11 | 13 | 6.7 | 6.7 | 13.3 | 20 | –
18 | Cn1c(N2CCN(CCCOc3ccccc3[N+](=O)[O-])CC2)cc(=O)n(C)c1=O [Compound 55, 1,3-dimethyl-6-{4-[3-(2-nitrophenoxy)propyl]piperazin-1-yl}-2.4(1H,3H)-pyrimidinedione hydrochloride] | – | 18 | 39 | 0 | 0 | 6.8 | 13.6 | –
